Reference: the kinase profiling compilation of Christmann-Franck et al. (2016)

How the values were obtained:
[1] = target: GCK (human) (UniProt Q12851)
[2] = target: IRAK4 (human) (UniProt Q9NWZ3)
[3] = target: ERBB4 (human) (UniProt Q15303)
[4] = target: MAPK10 (human) (UniProt P53779)
[5] = target: BRSK1 (human) (UniProt Q8TDC3); settings: compound 10.0 µM
[6] = target: NUAK1 (human) (UniProt O60285)
[7] = target: HIPK3 (human) (UniProt Q9H422)
[8] = system: PAK2 (human), Q13177 [T402E]
[9] = target: STK11 (human) (UniProt Q15831)
[10] = system: AKT1 (human), P31749 [S473D]
[11] = target: MAPKAPK3 (human) (UniProt Q16644)
[12] = target: MINK1 (human) (UniProt Q8N4C8)
[13] = target: MAP3K11 (human) (UniProt Q16584)
[14] = target: AURKA (human) (UniProt O14965)
[15] = target: MYLK (human) (UniProt Q15746)
[16] = target: TTK (human) (UniProt P33981)
[17] = target: MAP3K9 (human) (UniProt P80192)
[18] = target: MARK4 (human) (UniProt Q96L34)
[19] = system: KIT (human), P10721 [D816V]; test: KINOMEscan competition binding; settings: compound 10.0 µM
[20] = target: PDGFRA (human) (UniProt P16234); test: KINOMEscan competition binding; settings: compound 10.0 µM
[21] = target: WEE1 (human) (UniProt P30291); test: KINOMEscan competition binding; settings: compound 10.0 µM
[22] = target: DCLK1 (human) (UniProt O15075); test: KINOMEscan competition binding; settings: compound 10.0 µM
[23] = target: TLK2 (human) (UniProt Q86UE8); test: KINOMEscan competition binding; settings: compound 10.0 µM
[24] = target: PKMYT1 (human) (UniProt Q99640); test: KINOMEscan competition binding; settings: compound 10.0 µM
[25] = target: MAPK15 (human) (UniProt Q8TD08); test: KINOMEscan competition binding; settings: compound 10.0 µM
[26] = target: TGFBR2 (human) (UniProt P37173); test: KINOMEscan competition binding; settings: compound 10.0 µM
[27] = target: ANKK1 (human) (UniProt Q8NFD2); test: KINOMEscan competition binding; settings: compound 10.0 µM
[28] = target: DDR1 (human) (UniProt Q08345); test: KINOMEscan competition binding; settings: compound 10.0 µM
[29] = target: ZAP70 (human) (UniProt P43403); test: KINOMEscan competition binding; settings: compound 10.0 µM
[30] = target: PIK3C2B (human) (UniProt O00750); test: KINOMEscan competition binding; settings: compound 10.0 µM
[31] = system: FLT3 (human), P36888 [D835H]; test: KINOMEscan competition binding; settings: compound 10.0 µM
[32] = target: ACVR2A (human) (UniProt P27037); test: KINOMEscan competition binding; settings: compound 10.0 µM
[33] = target: MYLK (human) (UniProt Q15746); test: KINOMEscan competition binding; settings: compound 10.0 µM
[34] = target: GSK3B (human) (UniProt P49841); test: KINOMEscan competition binding; settings: compound 10.0 µM
[35] = target: PRKACA (human) (UniProt P17612); test: KINOMEscan competition binding; settings: compound 10.0 µM
[36] = target: MAP2K4 (human) (UniProt P45985); test: KINOMEscan competition binding; settings: compound 10.0 µM
[37] = target: INSR (human) (UniProt P06213)

MYLK (human), sequence (Q15746 whole entry, looked up): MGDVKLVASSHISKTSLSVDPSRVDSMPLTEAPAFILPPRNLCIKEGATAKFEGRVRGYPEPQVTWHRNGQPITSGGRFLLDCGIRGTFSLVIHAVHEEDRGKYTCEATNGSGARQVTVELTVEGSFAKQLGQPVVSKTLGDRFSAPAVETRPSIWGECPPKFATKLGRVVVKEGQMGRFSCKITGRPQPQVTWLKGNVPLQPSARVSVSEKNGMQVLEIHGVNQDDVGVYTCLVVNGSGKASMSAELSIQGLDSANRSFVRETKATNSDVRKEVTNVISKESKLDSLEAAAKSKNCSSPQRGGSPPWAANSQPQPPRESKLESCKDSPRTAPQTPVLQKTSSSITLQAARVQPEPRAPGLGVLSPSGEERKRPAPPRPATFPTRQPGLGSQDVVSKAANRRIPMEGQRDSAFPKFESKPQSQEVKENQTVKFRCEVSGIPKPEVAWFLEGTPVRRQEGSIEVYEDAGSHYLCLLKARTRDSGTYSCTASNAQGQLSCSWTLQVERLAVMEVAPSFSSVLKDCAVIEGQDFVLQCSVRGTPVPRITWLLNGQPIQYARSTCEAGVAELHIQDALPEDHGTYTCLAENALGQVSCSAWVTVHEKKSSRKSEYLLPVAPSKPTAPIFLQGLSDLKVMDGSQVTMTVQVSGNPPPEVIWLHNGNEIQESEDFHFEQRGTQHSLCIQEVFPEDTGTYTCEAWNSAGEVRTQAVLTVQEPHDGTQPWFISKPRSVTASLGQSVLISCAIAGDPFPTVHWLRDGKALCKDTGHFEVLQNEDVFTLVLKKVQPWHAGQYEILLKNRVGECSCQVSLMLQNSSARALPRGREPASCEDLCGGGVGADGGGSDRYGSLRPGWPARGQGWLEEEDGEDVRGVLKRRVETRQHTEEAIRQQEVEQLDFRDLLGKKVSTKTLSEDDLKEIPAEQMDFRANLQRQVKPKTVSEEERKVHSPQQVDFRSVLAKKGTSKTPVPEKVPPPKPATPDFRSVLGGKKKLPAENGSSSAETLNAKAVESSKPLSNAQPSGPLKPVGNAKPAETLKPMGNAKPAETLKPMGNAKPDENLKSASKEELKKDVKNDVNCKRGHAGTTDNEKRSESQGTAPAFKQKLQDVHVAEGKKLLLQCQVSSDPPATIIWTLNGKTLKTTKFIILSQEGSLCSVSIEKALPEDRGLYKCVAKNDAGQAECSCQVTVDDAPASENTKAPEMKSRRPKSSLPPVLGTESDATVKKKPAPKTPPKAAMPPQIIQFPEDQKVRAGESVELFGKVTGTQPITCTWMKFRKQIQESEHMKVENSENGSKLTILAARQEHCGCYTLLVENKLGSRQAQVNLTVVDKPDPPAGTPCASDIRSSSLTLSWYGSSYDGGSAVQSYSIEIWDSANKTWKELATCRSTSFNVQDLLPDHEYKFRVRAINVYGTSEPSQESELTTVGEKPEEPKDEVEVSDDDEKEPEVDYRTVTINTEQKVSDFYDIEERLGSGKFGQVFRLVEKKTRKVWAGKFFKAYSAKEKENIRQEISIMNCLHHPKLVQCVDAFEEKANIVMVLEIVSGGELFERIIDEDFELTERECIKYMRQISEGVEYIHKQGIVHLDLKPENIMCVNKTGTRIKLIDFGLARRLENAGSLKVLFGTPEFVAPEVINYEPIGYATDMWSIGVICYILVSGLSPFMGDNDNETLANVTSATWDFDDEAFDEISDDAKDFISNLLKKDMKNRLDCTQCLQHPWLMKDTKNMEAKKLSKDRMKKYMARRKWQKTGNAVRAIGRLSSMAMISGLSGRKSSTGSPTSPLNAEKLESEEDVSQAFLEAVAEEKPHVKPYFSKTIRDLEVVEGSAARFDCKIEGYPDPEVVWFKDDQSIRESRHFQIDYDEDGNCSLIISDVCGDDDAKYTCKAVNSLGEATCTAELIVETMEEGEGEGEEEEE
PDGFRA (human), sequence (P16234 whole entry, looked up): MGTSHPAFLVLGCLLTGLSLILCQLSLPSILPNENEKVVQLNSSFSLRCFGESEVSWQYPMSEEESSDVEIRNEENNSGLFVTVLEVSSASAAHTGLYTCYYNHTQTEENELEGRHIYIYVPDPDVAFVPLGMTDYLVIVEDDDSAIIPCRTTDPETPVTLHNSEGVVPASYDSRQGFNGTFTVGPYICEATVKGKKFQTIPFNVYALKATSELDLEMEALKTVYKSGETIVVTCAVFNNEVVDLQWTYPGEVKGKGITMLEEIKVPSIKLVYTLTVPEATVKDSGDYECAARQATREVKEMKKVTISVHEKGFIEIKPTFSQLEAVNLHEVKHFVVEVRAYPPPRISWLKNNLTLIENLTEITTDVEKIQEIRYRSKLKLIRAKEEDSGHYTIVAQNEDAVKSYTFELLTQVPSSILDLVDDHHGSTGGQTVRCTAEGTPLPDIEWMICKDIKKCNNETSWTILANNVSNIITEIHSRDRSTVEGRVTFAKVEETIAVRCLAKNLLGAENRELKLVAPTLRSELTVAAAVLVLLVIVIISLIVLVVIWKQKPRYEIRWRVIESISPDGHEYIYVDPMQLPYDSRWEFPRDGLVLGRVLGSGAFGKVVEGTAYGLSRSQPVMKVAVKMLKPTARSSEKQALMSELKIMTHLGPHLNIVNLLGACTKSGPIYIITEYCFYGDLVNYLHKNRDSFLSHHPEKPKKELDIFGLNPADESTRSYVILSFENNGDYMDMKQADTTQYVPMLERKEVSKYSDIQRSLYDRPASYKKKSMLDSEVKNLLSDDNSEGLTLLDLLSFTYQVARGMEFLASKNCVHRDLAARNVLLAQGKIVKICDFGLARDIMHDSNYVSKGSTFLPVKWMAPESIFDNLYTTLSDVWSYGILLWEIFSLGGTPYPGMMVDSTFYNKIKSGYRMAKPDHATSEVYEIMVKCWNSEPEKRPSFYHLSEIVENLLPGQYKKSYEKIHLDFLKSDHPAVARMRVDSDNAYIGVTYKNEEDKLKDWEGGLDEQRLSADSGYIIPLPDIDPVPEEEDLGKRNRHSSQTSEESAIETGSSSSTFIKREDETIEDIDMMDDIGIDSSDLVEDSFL
AURKA (human), sequence (O14965 whole entry, looked up): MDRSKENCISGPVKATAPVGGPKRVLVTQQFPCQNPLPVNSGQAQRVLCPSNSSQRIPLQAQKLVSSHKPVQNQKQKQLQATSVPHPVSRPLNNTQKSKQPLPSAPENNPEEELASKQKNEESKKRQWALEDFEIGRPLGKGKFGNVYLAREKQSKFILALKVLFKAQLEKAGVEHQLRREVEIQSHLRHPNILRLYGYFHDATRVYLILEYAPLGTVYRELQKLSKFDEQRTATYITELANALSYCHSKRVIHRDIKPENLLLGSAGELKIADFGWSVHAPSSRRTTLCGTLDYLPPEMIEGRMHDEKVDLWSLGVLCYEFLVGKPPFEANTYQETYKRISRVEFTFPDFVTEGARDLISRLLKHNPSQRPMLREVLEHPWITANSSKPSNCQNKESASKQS
KIT (human), P10721 [D816V], sequence (P10721 whole entry D816V, looked up): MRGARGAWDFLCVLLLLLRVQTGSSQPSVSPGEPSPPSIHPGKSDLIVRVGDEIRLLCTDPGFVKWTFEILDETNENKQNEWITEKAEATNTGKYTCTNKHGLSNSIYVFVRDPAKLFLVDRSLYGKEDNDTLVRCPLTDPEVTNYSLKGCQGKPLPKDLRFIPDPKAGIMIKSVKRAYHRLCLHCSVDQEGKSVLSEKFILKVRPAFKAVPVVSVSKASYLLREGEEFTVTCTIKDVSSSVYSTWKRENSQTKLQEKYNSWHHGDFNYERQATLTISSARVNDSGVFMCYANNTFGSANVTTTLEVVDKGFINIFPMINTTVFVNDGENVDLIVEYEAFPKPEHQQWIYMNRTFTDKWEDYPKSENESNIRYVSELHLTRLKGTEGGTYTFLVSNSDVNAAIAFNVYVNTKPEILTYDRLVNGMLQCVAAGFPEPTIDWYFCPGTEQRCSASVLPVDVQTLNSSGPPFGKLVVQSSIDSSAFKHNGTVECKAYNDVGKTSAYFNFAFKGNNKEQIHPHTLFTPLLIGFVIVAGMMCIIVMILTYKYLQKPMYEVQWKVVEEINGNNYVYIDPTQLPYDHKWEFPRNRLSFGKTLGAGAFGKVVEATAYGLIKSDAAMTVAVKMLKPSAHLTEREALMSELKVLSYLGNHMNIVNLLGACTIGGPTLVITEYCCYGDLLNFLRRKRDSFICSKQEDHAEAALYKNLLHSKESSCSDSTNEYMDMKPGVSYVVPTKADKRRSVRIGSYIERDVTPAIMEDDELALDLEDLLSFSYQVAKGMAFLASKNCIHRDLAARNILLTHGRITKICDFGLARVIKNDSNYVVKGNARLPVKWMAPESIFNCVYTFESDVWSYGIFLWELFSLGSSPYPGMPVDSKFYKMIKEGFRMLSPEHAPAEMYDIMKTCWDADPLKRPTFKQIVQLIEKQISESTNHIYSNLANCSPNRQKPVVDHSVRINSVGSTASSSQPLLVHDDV
MAP2K4 (human), sequence (P45985 whole entry, looked up): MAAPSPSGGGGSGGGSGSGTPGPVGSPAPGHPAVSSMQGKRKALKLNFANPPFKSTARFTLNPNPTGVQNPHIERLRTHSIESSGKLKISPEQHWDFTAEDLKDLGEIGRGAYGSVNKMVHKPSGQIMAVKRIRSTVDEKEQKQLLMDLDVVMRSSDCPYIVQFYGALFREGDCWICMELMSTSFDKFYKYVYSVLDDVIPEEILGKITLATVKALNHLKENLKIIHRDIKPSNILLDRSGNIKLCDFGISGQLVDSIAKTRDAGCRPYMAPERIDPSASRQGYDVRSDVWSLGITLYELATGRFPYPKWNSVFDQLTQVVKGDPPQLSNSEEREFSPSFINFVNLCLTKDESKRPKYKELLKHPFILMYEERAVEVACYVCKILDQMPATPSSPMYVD

Structure (SMILES): COC(=O)Nc1ccc(-c2nc(N3CCOCC3)c3cnn(C4CCN(C(=O)OC)CC4)c3n2)cc1
- per cent of control ([1]; compound 1.0 µM): 94%
- per cent of control ([1]; compound 10.0 µM): 105%
- per cent of control ([2]; compound 1.0 µM): 107%
- per cent of control ([2]; compound 10.0 µM): 114%
- per cent of control ([3]; compound 1.0 µM): 91%
- per cent of control ([3]; compound 10.0 µM): 108%
- per cent of control ([4]; compound 1.0 µM): 94%
- per cent of control ([4]; compound 10.0 µM): 106%
- per cent of control [5]: 94%
- per cent of control ([6]; compound 1.0 µM): 94%
- per cent of control ([6]; compound 10.0 µM): 82%
- per cent of control ([7]; compound 1.0 µM): 112%
- per cent of control ([7]; compound 10.0 µM): 85%
- per cent of control ([8]; compound 1.0 µM): 92%
- per cent of control ([8]; compound 10.0 µM): 91%
- per cent of control ([9]; compound 1.0 µM): 102%
- per cent of control ([9]; compound 10.0 µM): 112%
- per cent of control ([10]; compound 1.0 µM): 89%
- per cent of control ([10]; compound 10.0 µM): 87%
- per cent of control ([11]; compound 1.0 µM): 109%
- per cent of control ([11]; compound 10.0 µM): 101%
- per cent of control ([12]; compound 1.0 µM): 100%
- per cent of control ([12]; compound 10.0 µM): 100%
- per cent of control ([13]; compound 1.0 µM): 92%
- per cent of control ([13]; compound 10.0 µM): 106%
- per cent of control ([14]; compound 1.0 µM): 90%
- per cent of control ([14]; compound 10.0 µM): 63%
- per cent of control ([15]; compound 1.0 µM): 97%
- per cent of control ([15]; compound 10.0 µM): 87%
- per cent of control ([16]; compound 1.0 µM): 91%
- per cent of control ([16]; compound 10.0 µM): 93%
- per cent of control ([17]; compound 1.0 µM): 95%
- per cent of control ([17]; compound 10.0 µM): 109%
- per cent of control ([18]; compound 1.0 µM): 91%
- per cent of control ([18]; compound 10.0 µM): 109%
- kinase still bound, per cent of control [19]: 100%
- kinase still bound, per cent of control [20]: 92%
- kinase still bound, per cent of control [21]: 100%
- kinase still bound, per cent of control [22]: 93%
- kinase still bound, per cent of control [23]: 96%
- kinase still bound, per cent of control [24]: 100%
- kinase still bound, per cent of control [25]: 100%
- kinase still bound, per cent of control [26]: 78%
- kinase still bound, per cent of control [27]: 97%
- kinase still bound, per cent of control [28]: 100%
- kinase still bound, per cent of control [29]: 98%
- kinase still bound, per cent of control [30]: 100%
- kinase still bound, per cent of control [31]: 91%
- kinase still bound, per cent of control [32]: 100%
- per cent of control [33]: 81%
- kinase still bound, per cent of control [34]: 100%
- per cent of control [35]: 100%
- kinase still bound, per cent of control [36]: 74%

Structure (SMILES): CC(C)n1nc(-c2cc3cc(O)ccc3[nH]2)c2c(N)ncnc21
- per cent of control ([37]; compound 1.0 µM): 69%
- per cent of control ([37]; compound 10.0 µM): 58%
- kinase still bound, per cent of control [19]: 2.5%
- kinase still bound, per cent of control [20]: 2.2%
- kinase still bound, per cent of control [21]: 72%
- kinase still bound, per cent of control [22]: 70%
- kinase still bound, per cent of control [23]: 79%
- kinase still bound, per cent of control [24]: 37%
- kinase still bound, per cent of control [25]: 54%
- kinase still bound, per cent of control [26]: 2.8%
- kinase still bound, per cent of control [27]: 8.8%
- kinase still bound, per cent of control [28]: 6.4%
- kinase still bound, per cent of control [29]: 99%
- kinase still bound, per cent of control [30]: 5.6%
- kinase still bound, per cent of control [31]: 7.4%
- kinase still bound, per cent of control [32]: 0.5%
- per cent of control [33]: 0.9%
- kinase still bound, per cent of control [34]: 91%
- per cent of control [35]: 47%
- kinase still bound, per cent of control [36]: 3.4%
